# Data reported in US20080063643A1, “Peptide Derived From Hepatitis C Virus” (priority 2003, published 2008).
# Legend:
# peptide-specific IgG = assay: Absorption and elution of peptide-specific IgG (Example 1); format: binding, human; conditions: serum of the patient of FIG. 1
# Experimental: One hundred microliters of a plasma or serum sample diluted with 0.05% Tween 20/Block Ace (registered trademark) was added to each well and allowed to be absorbed to the peptide (20 μg/well) coated on the well of the plate at 37° C. for 2 hours. After this procedure was repeated 3 times, the peptide-specific IgG level in the supernatant was measured by ELISA. The antibody bound to the peptide-coated plate in the initial adsorption step was eluted with 30 μl/well of 5 M NaCl/50 mM citrate buffer (pH 3.0) (neutralized with 0.05% Tween 20/Block Ace containing 1.0 M Tris-HCl (pH 7.5)), and the peptide-specific IgG level in the eluted fraction was measured by ELISA.
# peptide-reactive IgG = assay: ELISA of anti-C-35 and anti-NS5A-2132 IgG in sera: cross reactivity, HLA and genotype restriction (Example 3); format: binding, human
# Source text: Two peptides with a purity of 90% or more were purchased from BIOSYNTHESIS (Lewisville, Tex.): HCV-1b core protein 35-44 ([…] (SEQ ID NO: 1) capable of inducing an HLA-A2-restricted CTL activity) and HCV-1b NS5A protein 2132-2140 ([…] (SEQ ID NO: 2) capable of inducing an HLA-A24-restricted CTL activity). As a negative control, peptides derived from HIV with an HLA-A2-binding motif ([…] (SEQ ID NO: 64)) and an HLA-A24-binding motif ([…] (SEQ ID NO: 63)) were used.
# The level of peptide-specific IgG was measured by an enzyme-linked immunosorbent assay (ELISA). Briefly, each peptide was dissolved in dimethyl sulfoxide (DMSO) and stored at −20° C. The peptide (20 μg/well) diluted with 0.1 M carbonate buffer containing disuccinimidyl suberate (DSS) (PIERCE, Rockford, Ill.) as a chemical crosslinker was bound to an ELISA plate. The wells were washed 3 times with 0.05% Tween 20/PBS (PBST). Then, the plate was blocked overnight at 4° C. with Block Ace (Yukijirushi, Tokyo, Japan). A serum sample was diluted 1:100, 1:200 or 1:400 with 0.05% Tween 20/Block Ace, and 100 μl/well of the sample was added to each well. After the sample was incubated at 37° C. for 2 hours, the plate was washed 9 times with PBST, and further incubated at 37° C. for 2 hours with 100 μl/well of a 1:1000 diluted rabbit anti-human IgG (γ-chain specific) (DAKO Glostrup, Denmark). After the plate was washed 9 times, 100 μl/well of a 1:100 diluted anti-rabbit IgG-conjugated horseradish peroxidase-dextran polymer (En Vision, DAKO) was added to each well, and then the plate was incubated at room temperature for 40 minutes. After the plate was washed, 100 μl/well of a tetramethylbenzidine substrate solution (KPL, Guildford, UK) was added, and the reaction was stopped by the addition of 1.0 M phosphoric acid.
# The cross reactivity of two antibodies reactive to the peptides derived from HCV-1b was examined. The sera obtained from 60 HCV patients and patients who are not included in the cohort study (CH, n=22, LC, n=21 and HCC, n=17) were examined for reactivity to the peptides of the core 35-44 (C-35) and NS5A 2132-2140 (NS5A-2132). The sera were also obtained from 24 subjects with an autoimmune disease, 17 cases of HBV infection and 10 cases of HTLV-1 infection. The sera obtained from 37 HDs were used as a negative control. The level of peptide-reactive IgG contained in the serially diluted serum samples was measured by ELISA. The results are reported by the absorbance (OD) of each sample. The representative results of OD at a serum dilution of 100:1 are shown. The cut-off value was set at 0.093 (mean+2 SD of OD from HDs). The statistical analysis was carried out using the χ^2-test. Values of P<0.05 were considered statistically significant.
# Then, the correlation between the HLA-class IA phenotype and the level of anti-C-35 IgG or anti-NS5A-2132 IgG was examined in 29 patients with a disease associated with HCV. The HLA-class IA phenotype was determined by a standard serological method. Nine patients were HLA-A2^+, 13 patients were A24^+, and the remaining 7 patients were A2^−-A24^−. The levels of Anti-C-35 and anti-NS5A-2132 were measured by a standard ELISA and the OD value of each patient at a serum dilution of 100:1 is shown in the figure.
# Also the correlation between the HCV genotype and the level of anti-C-35 IgG or anti-NS5A-2132 IgG was examined in a double blind study in patients infected with HCV-1b (n=29), HCV-2a (n=16) and HCV-2b (n=3). The HCV genotype was determined by directly sequencing HCV in the serum of the patient. The levels of anti-C-35 and anti-NS5A-2132 were measured by a standard ELISA and the OD value of each patient at a serum dilution of 100:1 is shown. The cut-off value was set at 0.093 (mean+2 SD of OD from HDs).
# Then, the sera of CH (n=24), LC (n=22), HCC (n=26) and HDs (n=9) were newly prepared and the level of anti-NS5A-2132 IgG was measured (FIG. 26). […]
# [1] = out of 60, cut-off 0.093 OD, serum dilution 100:1
sequence,measurement,setting,value
YLLPRRGPRL [No. 40],absorption of the antibody reactive to C-35 peptide by the peptide,peptide-specific IgG,absorbed by C-35
same,elution of the antibody reactive to C-35 peptide,peptide-specific IgG,eluted from the C-35-adsorbed fraction
same,"IgG level among the 3 groups (CH, LC and HCC patients)",peptide-reactive IgG,no significant difference in the IgG level among the 3 groups
same,detection of the anti-peptide antibody by HLA-class IA phenotype,"peptide-reactive IgG; 29 patients: HLA-A2+, A24+, A2-A24-",detected in the majority of the patients
same,positivity of sera from the other (not HCV) groups,"peptide-reactive IgG; autoimmune disease, HBV, HTLV-1",not positive
same,number of HTLV-1+ subjects with a significant level of anti-peptide IgG,peptide-reactive IgG; out of 10 cases,8
same,number of HCV-positive patients with a significant level of anti-peptide IgG,peptide-reactive IgG; [1],56
same,percentage of HCV-positive patients with a significant level of anti-peptide IgG,peptide-reactive IgG; [1],93.3%
same,number of patients with the anti-peptide antibody detected,"peptide-reactive IgG; patients infected with HCV-1b, out of 30",26
same,number of patients with the anti-peptide antibody detected,"peptide-reactive IgG; patients infected with HCV-2a, out of 15 (C-35) or 16 (NS5A-2132)",15
same,number of patients with the anti-peptide antibody detected,"peptide-reactive IgG; patients infected with HCV-2b, out of 3",3
